Results on eleven compounds are retold here after US9296723B2, “NAMPT inhibitors” (AbbVie Inc., priority 2012, dated 2016).

SMILES strings stand for the structures.

For orientation: IC50 means the midpoint of a concentration-inhibition curve. Read a high IC50 as weaker potency in that assay.

Assay [1] deals with T1, NAMPT (Homo sapiens, UniProt P43490). Briefly: Time-Resolved Fluorescence Resonance Energy Transfer (TR-FRET) Binding Assay of NAMPT. To be noted: 6.8 nM NAMPT, 200 nM probe, equilibrated 3 hours, no substrates. The gist of the method: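 Compound was mixed with enzyme, probe and antibody and equilibrated 3 h at room temperature. TR-FRET read at Ex 337 nm, Em 520/495 nm. Ratios were normalized to controls and fitted to a four-parameter logistic equation for IC50.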
T1 sequence (P43490 whole entry): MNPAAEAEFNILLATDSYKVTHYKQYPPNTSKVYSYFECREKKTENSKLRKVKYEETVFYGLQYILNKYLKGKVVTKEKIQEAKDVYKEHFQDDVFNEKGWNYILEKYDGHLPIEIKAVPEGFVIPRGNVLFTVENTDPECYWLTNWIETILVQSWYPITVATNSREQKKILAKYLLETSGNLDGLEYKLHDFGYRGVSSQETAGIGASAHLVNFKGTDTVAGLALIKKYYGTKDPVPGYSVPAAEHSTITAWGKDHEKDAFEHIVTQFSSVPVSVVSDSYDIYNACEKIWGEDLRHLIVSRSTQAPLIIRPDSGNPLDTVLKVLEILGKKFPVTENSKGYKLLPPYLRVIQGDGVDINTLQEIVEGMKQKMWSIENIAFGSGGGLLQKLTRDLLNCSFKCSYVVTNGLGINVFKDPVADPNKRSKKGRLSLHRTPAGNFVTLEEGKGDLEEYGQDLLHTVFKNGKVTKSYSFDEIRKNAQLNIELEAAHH

The target of assay [2] is T1, NAMPT. Briefly: TR-FRET Binding Assay of NAMPT with PRPP. The following applies: 2 nM NAMPT, 2 nM probe, 200 µM PRPP and 2.5 mM ATP, equilibrated 16 hours. How it is done: Time-Resolved Fluorescence Resonance Energy Transfer (TR-FRET) Binding Assay of NAMPT with PRPP
Compound handling and data processing were identical to the assay in the absence of substrates (above). Final concentrations were 1× assay buffer, 2% DMSO, 2 nM NAMPT, 2 nM probe, 1 nM Tb-anti-His antibody (Invitrogen #PV5895), 200 µM PRPP and 2.5 mM ATP. Reactions were equilibrated for 16 hours prior to measurement to allow for potential enzymatic modification of test compounds.
Background: In TR-FRET formats the signal depends on donor and acceptor labels being close together.

In assay [3] the test system is PC3 cells. Briefly: NAMPT Cell Proliferation Assay (Cell Titer Glo). Format: cell-based. The following applies: Homo sapiens, PC-3, 120 h, incubated 5 days, cell viability. The procedure, abridged: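 PC3 cells (500/well, RPMI with 10% heat-inactivated FBS) were exposed to 10-fold compound dilutions from […] for 5 days at 37 °C, 5% CO2. Viability was read with Cell Titer Glo; IC50 from sigmoidal fit of percent inhibition.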

With `O=C(CC1CCCC1)N1CC(Oc2ccc(NC(=O)N3CC(c4cccnc4)C3)cc2)C1` [Example 153, N-(4-{[1-(cyclopentylacetyl)azetidin-3-yl]oxy}phenyl)-3-(pyridin-3-yl)azetidine-1-carboxamide], the IC50 was determined as 12.4 nM in assay [1], 0.436 nM in assay [2] and 8.03 nM in assay [3].
On to `O=C(Nc1ccc(OC2CN(C(=O)C3CCCC3)C2)cc1)N1CC(c2cccnc2)C1` [Example 142, N-(4-{[1-(cyclopentylcarbonyl)azetidin-3-yl]oxy}phenyl)-3-(pyridin-3-yl)azetidine-1-carboxamide], for which the 50% inhibitory concentration (IC50) in assay [1] came to 24.6 nM; in assay [2], 0.339 nM; in assay [3] it was 7.91 nM.
Turning to `CCC(C)(C)C(=O)N1CC[C@@H](Oc2ccc(NC(=O)N3CC(c4cccnc4)C3)cc2)C1` [Example 330, N-(4-{[(3R)-1-(2,2-dimethylbutanoyl)pyrrolidin-3-yl]oxy}phenyl)-3-(pyridin-3-yl)azetidine-1-carboxamide], the IC50 in assay [1] stood at 21.9 nM; in assay [2] it was 0.364 nM; in assay [3] it was 12.3 nM.
For the compound `CC(=O)N[C@@H](CC(C)C)C(=O)N1CCC(c2ccc(NC(=O)N3CC(c4cccnc4)C3)cc2)CC1` [Example 175, N-{4-[1-(N-acetyl-L-leucyl)piperidin-4-yl]phenyl}-3-(pyridin-3-yl)azetidine-1-carboxamide], the results for the IC50 in assay [1], in assay [2] and in assay [3] were 30.7 nM, 0.403 nM and 67.5 nM, respectively.
Regarding `O=C(Nc1ccc(C2CCN(C(=O)[C@H]3CCCO3)C2)cc1)N1CC(c2cccnc2)C1` (stereo partly drawn) [Example 67, 3-(pyridin-3-yl)-N-(4-{1-[(2R)-tetrahydrofuran-2-ylcarbonyl]pyrrolidin-3-yl}phenyl)azetidine-1-carboxamide], the 50% inhibitory concentration (IC50) in assay [1] was 173 nM; in assay [2] it was 0.171 nM; in assay [3] it was 78.5 nM.
On the same counts, the results for `CC(C)C(C)C(=O)N1CCC(c2ccc(NC(=O)N3CC(c4cccnc4)C3)cc2)CC1` (stereo not drawn) [Example 197, N-{4-[1-(2,3-dimethylbutanoyl)piperidin-4-yl]phenyl}-3-(pyridin-3-yl)azetidine-1-carboxamide] are 17.8 nM, 0.505 nM and 22.7 nM.
On the same counts, the results for `CC(C)(O)C(=O)N1CCC(c2ccc(NC(=O)N3CC(c4cccnc4Cl)C3)cc2)CC1` [Example 161, 3-(2-chloropyridin-3-yl)-N-{4-[1-(2-hydroxy-2-methylpropanoyl)piperidin-4-yl]phenyl}azetidine-1-carboxamide] are 8.62 nM, 5.79 nM and 905 nM.
The corresponding values for `O=C(CC1CC2CCC1C2)N1CCC(Oc2ccc(NC(=O)N3CC(c4cccnc4)C3)cc2)C1` (stereo not drawn) [Example 299, N-(4-{[1-(bicyclo[2.2.1]hept-2-ylacetyl)pyrrolidin-3-yl]oxy}phenyl)-3-(pyridin-3-yl)azetidine-1-carboxamide] are 64.9 nM, 0.451 nM and 14.6 nM.
For the compound `O=C(CC(F)(F)F)N1CC(c2ccc(NC(=O)N3CC(c4cccnc4)C3)cc2)C1` [Example 108, 3-(pyridin-3-yl)-N-{4-[1-(3,3,3-trifluoropropanoyl)azetidin-3-yl]phenyl}azetidine-1-carboxamide], the IC50 in assay [1] stood at 122 nM; in assay [2], 0.411 nM; in assay [3] it was 81.5 nM.
For `O=C(CCC(F)(F)F)N1CCC(c2ccc(NC(=O)N3CC(c4cccnc4)C3)cc2)C1` (stereo not drawn) [Example 271, 3-(pyridin-3-yl)-N-{4-[1-(4,4,4-trifluorobutanoyl)pyrrolidin-3-yl]phenyl}azetidine-1-carboxamide], the concentration for half-maximal inhibition (IC50) in assay [1] worked out at 46.9 nM; in assay [2] it was 0.279 nM; in assay [3], 60.4 nM.
On the same counts, the results for `Cc1ccsc1C(=O)N1CC(c2ccc(NC(=O)N3CC(c4cccnc4)C3)cc2)C1` [Example 220, N-(4-{1-[(3-methylthiophen-2-yl)carbonyl]azetidin-3-yl}phenyl)-3-(pyridin-3-yl)azetidine-1-carboxamide] are 10.4 nM, 0.34 nM and 4.15 nM.
